# Laboratory results from paper PMC12015242, “A universal cannabinoid CB1 and CB2 receptor TR-FRET kinetic ligand-binding assay” (Frontiers in Pharmacology, 2025).
# Read-outs that look alike come from different tables or passages of the source.
# Key:
# [1] = target: T1, human CB2R (SNAP-CB2) (Homo sapiens, UniProt P34972); format: binding; conditions: 37°C, D77 900 nM, 15-min incubation
# T1 construct: truncated CB1R (CB1R91-472) and full-length CB2R (CB2R1–360); 5HT3A signal peptide (N, cleaved yes); expressed in transfected cells; membranes
# T1 sequence (P34972 whole entry, the tested form may be a part): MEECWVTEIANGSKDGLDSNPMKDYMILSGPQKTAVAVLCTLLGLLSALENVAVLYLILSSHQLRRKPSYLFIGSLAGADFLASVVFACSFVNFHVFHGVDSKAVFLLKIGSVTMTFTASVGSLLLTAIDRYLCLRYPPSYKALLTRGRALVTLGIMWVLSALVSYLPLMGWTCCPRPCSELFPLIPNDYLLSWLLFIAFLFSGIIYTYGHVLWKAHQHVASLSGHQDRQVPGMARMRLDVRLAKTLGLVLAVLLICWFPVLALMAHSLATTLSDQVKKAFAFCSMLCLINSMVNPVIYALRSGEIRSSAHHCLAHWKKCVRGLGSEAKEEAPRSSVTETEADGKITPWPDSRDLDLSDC
# [2] = target: T1, human CB2R (SNAP-CB2); format: binding
# [3] = target: T2, human CB1R (SNAP-CB1R91–472) (Homo sapiens, UniProt P21554); assay: biochemical; format: binding
# T2 construct: SNAP-tagged human CB1R or CB2R (SNAP-CB1R91–472 and SNAP-CB2); 5HT3A signal peptide (N, cleaved yes); expressed in transfected cells; membranes
# T2 sequence (P21554 91-472): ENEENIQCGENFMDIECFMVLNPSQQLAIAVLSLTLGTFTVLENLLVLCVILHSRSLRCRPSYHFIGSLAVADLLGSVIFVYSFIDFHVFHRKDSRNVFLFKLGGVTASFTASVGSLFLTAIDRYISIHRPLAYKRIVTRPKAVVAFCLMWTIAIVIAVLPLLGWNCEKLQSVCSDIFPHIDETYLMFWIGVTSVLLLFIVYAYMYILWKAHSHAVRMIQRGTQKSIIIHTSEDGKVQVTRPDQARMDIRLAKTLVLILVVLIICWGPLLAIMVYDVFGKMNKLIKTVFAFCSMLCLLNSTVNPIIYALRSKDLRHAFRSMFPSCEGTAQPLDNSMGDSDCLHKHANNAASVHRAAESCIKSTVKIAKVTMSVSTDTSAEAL
# [4] = target: T2, human CB1R (SNAP-CB1R91–472); assay: biochemical; format: binding; remark: listed apart in the source
# [5] = target: T3, full length CB1R WT (Homo sapiens, UniProt P21554); format: cell-based
# T3 construct: 5HT3A signal peptide (N, cleaved yes); expressed in transfected cells; host or cells: T-REx-293 cells, tetracycline-induced, co-expressing the Gi-CASE biosensor
# T3 sequence (P21554 whole entry): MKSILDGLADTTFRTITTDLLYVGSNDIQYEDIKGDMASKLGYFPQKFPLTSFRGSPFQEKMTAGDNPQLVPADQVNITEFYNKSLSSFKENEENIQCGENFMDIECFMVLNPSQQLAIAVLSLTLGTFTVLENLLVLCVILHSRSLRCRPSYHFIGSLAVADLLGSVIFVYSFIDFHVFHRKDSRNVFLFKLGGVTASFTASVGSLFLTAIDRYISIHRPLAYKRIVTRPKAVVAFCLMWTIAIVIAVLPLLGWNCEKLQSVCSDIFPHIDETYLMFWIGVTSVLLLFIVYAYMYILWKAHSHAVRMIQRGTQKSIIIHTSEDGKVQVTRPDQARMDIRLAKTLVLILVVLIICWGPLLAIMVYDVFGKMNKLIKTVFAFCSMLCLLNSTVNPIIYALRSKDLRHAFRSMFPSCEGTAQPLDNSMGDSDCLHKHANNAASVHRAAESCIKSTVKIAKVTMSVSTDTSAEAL
# [6] = target: T4, truncated CB1R91-472 (Homo sapiens, UniProt P21554); format: cell-based
# T4 construct: 5HT3A signal peptide (N, cleaved yes); expressed in transfected cells; host or cells: T-REx-293 cells, tetracycline-induced, co-expressing the Gi-CASE biosensor
# T4 sequence (P21554 91-472): as the sequence (P21554 91-472) above
# [7] = target: T2, human CB1R (SNAP-CB1R91–472); assay: Fluorescent ligand kinetic association binding, TR-FRET; conditions: 25°C; for time required for equilibrium: 15 min data collection period
# Description: (§1) Experiments were performed using T-REx™-293 cell membranes expressing SNAP-tagged human CB1R or CB2R (SNAP-CB1R91–472 and SNAP-CB2). All the assays were conducted at either 25°C or 37°C in white 384-well OptiPlate plates (PerkinElmer) using the PHERAstar FSX microplate reader (BMG Labtech). The TRF 337/620/520 optic module was used for all assays, except for tracer MKA-136, where the TRF 337/570/490 module was utilized. Each well was excited with four laser flashes, and signal detection was performed with a 100-μs delay, integrating the signal over 700 μs.
# (§2) Assay buffer comprised HBSS (Hanks’ Balanced Salt Solution) containing 5 mM HEPES, 0.5% BSA, and 0.02% Pluronic F-127 at pH 7.4. BSA (0.5%) and 0.02% Pluronic F-127 were used to minimize the non-specific binding of hydrophobic compounds to plasticware. Membranes were preincubated with 100 μM of GppNHp at 25 or 37°C for 15 min prior to addition to the plate using automatic injectors to ensure early time points could be measured with accuracy. GppNHp is a non-hydrolyzable GTP analog that will bind to G proteins and promote the dissociation of G proteins from the receptor. This way, we promote a single population of receptors (uncoupled from G proteins) avoiding a mixed population (i.e., uncoupled receptors (R) and receptors coupled to GDP bound G proteins, or G proteins alone (RG)). Adding GTP analogs is a common strategy used in GPCR binding studies to ensure a homogeneous single-state receptor population and simplify the analysis.
# (§3) To control for potential plate position effects, plate layouts were varied between independent experiments. […] D77 stock was prepared at 100x the final concentration, and 0.4 μL was added to the wells. DMSO was held constant at 2% for all assay points, including the saturation and competition binding experiments, as reflected in the text.
# (§4) Fluorescent ligand binding to CB1R and CB2R was assessed via HTRF detection, allowing the construction of association binding curves. For fluorescent ligand characterization, six increasing concentrations of fluorescent ligands were prepared, and cell membranes containing human CB1R or CB2R (1 μg/well) were added (at t = 0) in a total volume of 40 μL containing 2% DMSO at 25 or 37°C, with gentle agitation. […] As the wells are read sequentially, we restricted the readout of kinetic data of two ligands per experimental run to reduce the minimum reading cycle time.
# (§5) D77 association data were fitted to a global fitting model using GraphPad Prism 9.2 to simultaneously calculate k on and k off using the following equation, where k obs equals the observed rate of association and L is the concentration of D77: kobs=L⋅kon+koff (3)
# [8] = target: T1, human CB2R (SNAP-CB2); assay: as above; conditions: 25°C; for time required for equilibrium: 15 min data collection period
# Description: as §1, §2, §3, §4, §5
# [9] = test system: CB2R; conditions: 25°C, radioligand kinetic binding assay, ref Martella et al., 2017; cited from earlier work
compound,measurement,setting,value
CCCCC/C=C\C/C=C\C/C=C\C/C=C\CCCC(=O)OC(CO)CO [2-AG],pK i,[1],5.81 ± 0.03
same,pKd (kinetic),[2]; 25°C,6.36 ± 0.06
same,pK d (kinetic),[2]; 37°C,5.92 ± 0.04
CCCCCCC(C)(C)c1cc(O)c2c(c1)OC(C)(C)[C@@H]1CC=C(CO)C[C@@H]21 [HU-210],pK i,[3],7.99 ± 0.01
same,pK d (kinetic),[4],8.65 ± 0.01
same,pKd (kinetic),[4],8.64 ± 0.02
same,Emax (%),[5],98.2 ± 6.8%
same,pEC50,[5],8.97 ± 0.08
same,Emax (%),[6],104.1 ± 4.7%
same,pEC50,[6],9.15 ± 0.09
CCCCCCC(C)(C)c1cc(OC)c([C@@H]2C=C(CO)[C@@H]3C[C@H]2C3(C)C)c(OC)c1 [HU-308],Ki,[3],3.89 µM
same,Kd,[4]; pK d (kinetic),4.47 µM
same,Kd,[4]; pKd (kinetic),4.27 µM
CCCCCCC(C)(C)c1cc(OC)c(C2C=C(CNC(=O)CCCCCCNc3ccc([N+](=O)[O-])c4nonc34)C3CC2C3(C)C)c(OC)c1 (stereo not shown) [MKA-115],time required for equilibrium,[7],> 15 min
same,time required for equilibrium,[8],> 15 min
CCCCCc1cc(O)c2c(c1)OC(C)(C)[C@@H]1CC=C(CNC(=O)CCCCCCNc3ccc([N+](=O)[O-])c4nonc34)C[C@@H]21 [MKA-136],time required for equilibrium,[7],> 15 min
same,koff of fluorescent tracer,[8],0.0035 ± 0.0012 s⁻¹
same,pKd of fluorescent tracer,[8],6.71 ± 0.41
same,time required for equilibrium,[8],> 15 min
CCCCCc1cc(O)c2c(c1)OC(C)(C)[C@@H]1CC=C(CNC(=O)CCCCC[n+]3cc(S(=O)(=O)[O-])ccc3/C=C/c3cc4ccc(N(CC)CC)cc4oc3=O)C[C@@H]21 [MKA-138],koff of fluorescent tracer,[7],0.15 ± 0.03 s⁻¹
same,pKd of fluorescent tracer,[7],6.31 ± 0.05
same,koff of fluorescent tracer,[8],0.0153 ± 0.0015 s⁻¹
same,pKd of fluorescent tracer,[8],6.97 ± 0.08
CCOC(=O)C(CC)(CCCSCCOCCNc1ccc([N+](=O)[O-])c2nonc12)NC(=O)c1ccc(C2CC2)c(Cc2ccc(F)cc2)n1 (stereo not shown) [NBD-690],koff of fluorescent tracer,[7],0.128 ± 0.00733 s⁻¹
same,pKd of fluorescent tracer,[7],6.13 ± 0.09
same,koff of fluorescent tracer,[8],0.0162 ± 0.00083 s⁻¹
same,pKd of fluorescent tracer,[8],7.15 ± 0.02
CCOC(=O)C(CC)(CCCSCCOCCOCCNc1ccc([N+](=O)[O-])c2nonc12)NC(=O)c1ccc(C2CC2)c(Cc2ccc(F)cc2)n1 (stereo not shown) [NBD-691],pKd of fluorescent tracer,[7],6.04 ± 0.01
same,koff of fluorescent tracer,[8],0.0208 ± 0.001 s⁻¹
same,pKd of fluorescent tracer,[8],7.20 ± 0.01
CCOC(=O)C(CC)(CCCSCCOCCOCCOCCNc1ccc([N+](=O)[O-])c2nonc12)NC(=O)c1ccc(C2CC2)c(Cc2ccc(F)cc2)n1 (stereo not shown) [NBD-694],pKd of fluorescent tracer,[7],6.02 ± 0.01
same,koff of fluorescent tracer,[8],0.039 ± 0.00367 s⁻¹
same,pKd of fluorescent tracer,[8],6.97 ± 0.01
CCOC(=O)C(CC)(CCCSCCOCCOCCOCCOCCNc1ccc([N+](=O)[O-])c2nonc12)NC(=O)c1ccc(C2CC2)c(Cc2ccc(F)cc2)n1 (stereo not shown) [NBD-698],koff of fluorescent tracer,[7],0.166 ± 0.004 s⁻¹
same,pKd of fluorescent tracer,[7],6.22 ± 0.01
same,koff of fluorescent tracer,[8],0.0475 ± 0.00667 s⁻¹
same,pKd of fluorescent tracer,[8],6.93 ± 0.05
SR 144528,k off,[4],0.0832 ± 0.0122 s⁻¹
same,koff,[4],0.0387 ± 0.00333 s⁻¹
same,Residence time (Rt) (s),[2]; 25°C,379 ± 27 s
same,koff,[2]; 25°C,0.00267 ± 0.00017 s⁻¹
same,Residence time (Rt) (min),"[2]; 25°C, listed as SR 144,528",6.3 min
same,Residence time (Rt) (min),"[2]; 25°C, listed as SR-144528",6.32 ± 0.45 min
same,k off,[2]; 37°C,0.0115 ± 0.0005 s⁻¹
same,k on,[2]; 37°C,(2.47 ± 0.16) × 10^8 M^−1 min^−1
same,"k on (text, shared exponent)",[2]; 37°C,4.17e+06 M⁻¹ s⁻¹
same,Residence time (Rt) (min),"[2]; 37°C, Rt = 1/k off",1.46 ± 0.07 min
same,Residence time (Rt) (s),"[2]; 37°C, Rt = 1/k off",87 ± 4 s
same,residence time,[9],8.7 min
